Source: US10653672B2, “Myogenesis promotor, muscle atrophy inhibitor, medical composition and TAZ activator” (National University Corporation Tokyo Medical and Dental …, priority 2014, dated 2020)
Several values for one entry are separate records, joined by “and”; a condition that tells them apart may be missing. Equal entries are not always repeated.

Columns and labels:
Balb/c ByJ mice = assay: Suppression of dexamethasone-induced muscle atrophy; type: in vivo, mouse; settings: 20 μL of 25 mg/mL stock intraperitoneally each day for a week; day 14
Method: (1) A 25 mg/mL dexamethasone stock solution in DMSO was prepared. Three Balb/c ByJ mice (6 week, female) were intraperitoneally injected with 20 μL of the dexamethasone stock solution, each day for a week. As a control group, three other individuals were injected with 20 μL of DMSO. On day 9, 11 and 13, each group of the mice was injected with a solution prepared by dissolving 0.3 μL of 10 mM IBS008738 stock solution in 100 μL PBS, on one hindlimb muscle, and with 100 μL PBS on the other hindlimb muscle. The mice were sacrificed at day 14, and the muscle tissues were fixed and stained with hematoxylin and eosin (see FIG. 8D). It was observed that the muscle fibers of the mice administered with dexamethasone were shrinked.
(2) The cross section of the muscle fibers of the individual intraperitoneally injected with dexamethasone was stained with an anti-laminin antibody and observed. […] The cross-section area of muscle fibers (500 per individual) of the three mice was measured. As a result, the area of the individual injected with IBS008738 was greater than the area of the individual injected with DMSO (see FIG. 9F). The cross-section area of muscle fibers was analyzed with Image J software.

C2C12 cells [1] = assay: Evaluation of myogenesis of C2C12 cells by fusion index; type: cell-based, mouse; settings: differentiation condition 72 hours, DMSO as 1, average of three
Method: (1) C2C12 cells were grown to confluence under growth condition, and then in differentiation condition for 72 hours, in a culture medium added with DMSO, IBS008738 (exemplary compound 1) or exemplary compounds 2 to 44, at a concentration of 1 μM, 3 μM or 10 μM, respectively. Thereafter, the degree of myogenesis was evaluated by a fusion index (a value obtained by dividing the number of nuclei detected in multinucleated myosin heavy chain (MHC)-positive cells by the total number of the nuclei). Specifically, exemplary compounds were divided into five groups, and DMSO and IBS008738 were evaluated in each group as controls. The evaluation was conducted three times, and the average value and the standard deviation of the fusion index was relativized with the measured value of DMSO as 1.
C2C12 cells were passaged in a growth medium (DMEM containing 10% FBS) and differentiated in a differentiation medium (DMEM containing 2% horse serum (Invitrogen)).

C2C12 cells [2] = assay: Antagonistic action on myostatin in C2C12 cells; type: cell-based, mouse; settings: differentiation condition 72 hours
Text: Myostatin is a protein and a member of a transforming growth factor […] superfamily, and inhibits muscle growth and differentiation. Myostatin binds activin type IIB receptor and triggers SMAD2/3-dependent signaling. Since TAZ interacts with SMAD2/3, effects of IBS008738 on the signaling of myostatin was examined (FIGS. 8A to 8C). The line in the figures is 100 μm. The line and the error bar indicate the average value and the standard error, *p<0.05, […], ***p<0.001, ns refers to not significant.
(1) C2C12 cells in which TAZ was knocked down (si TAZ) and C2C12 cells in which TAZ was not knocked down (si Cont) were grown to confluence, respectively, A stock solution of 100 μg/mL myostatin in 4 mM […] with 0.1% (w/v) BSA and a stock solution of 10 mM IBS008738 in DMSO were prepared. The cells were cultured at differentiation condition for 72 hours in a 1 mL medium with 1 μL DMSO, a 1 mL medium with 1 μL myostatin stock solution, and a 1 mL medium with 1 μL IBS008738 stock solution. As a result, muscle formation of the C2C12 cells was inhibited in the case with only myostatin, but muscle formation of the C2C12 cells was recovered in the case with myostatin and IBS008738.
(2) The fusion index of C2C12 cells in which TAZ was knocked down (si TAZ) and C2C12 cells in which TAZ was not knocked down (si Cont), after being cultured under differentiation condition for 72 hours, was analyzed.
Expression of MHC of C2C12 cells in which TAZ was knocked down (si TAZ) and C2C12 cells in which TAZ was not knocked down (si Cont), after being cultured under differentiation condition for 72 hours, was analyzed by immunoblotting. As a result, expression of MHC decreased in the case with only myostatin, whereas it recovered in the case with myostatin and IBS008738 (see FIG. 8C).

Row | Compound | relative fusion index (FI) (C2C12 cells [1]; Group 4, 1 μM) | relative fusion index (FI) (C2C12 cells [1]; Group 4, 3 μM) | relative fusion index (FI) (C2C12 cells [1]; Group 4, 10 μM) | relative fusion index (FI) (C2C12 cells [1]; Group 5, 1 μM) | relative fusion index (FI) (C2C12 cells [1]; Group 5, 3 μM) | relative fusion index (FI) (C2C12 cells [1]; Group 5, 10 μM) | further results
1 | C[C@@H]1C[C@H]2[C@@H]3CCC4=CC(=O)C=C[C@]4(C)[C@@]3(F)[C@@H](O)C[C@]2(C)[C@@]1(O)C(=O)CO [dexamethasone, reference compound] |  |  |  |  |  |  | muscle fibers of the mice administered with dexamethasone (Balb/c ByJ mice): shrinked
2 | NCCc1ccc(-n2cnc(N)c2C(=O)c2ccccc2)cc1 [exemplary compound 28] | 1.21 | 1.42 | 1.64 |  |  |  | 
3 | N#CCc1ccc(-n2cnc(N)c2C(=O)c2ccccc2)cc1 [exemplary compound 29] | 1.25 | 1.49 | 1.61 |  |  |  | 
4 | COc1ccc(C(=O)c2c(N)ncn2-c2ccc(C)cc2)cc1 [exemplary compound 30] | 1.27 | 1.52 | 1.54 |  |  |  | 
5 | Cc1ccc(-n2cnc(N)c2C(=O)c2cccc(Cl)c2)cc1 [exemplary compound 31] | 1.12 | 1.15 | 1.40 |  |  |  | 
6 | Cc1ccc(-n2cnc(N)c2C(=O)c2ccc(Cl)cc2)cc1 [exemplary compound 32] | 1.16 | 1.47 | 1.60 |  |  |  | 
7 | Cc1ccc(-n2cnc(N)c2C(=O)c2ccc([N+](=O)[O-])cc2)cc1 [exemplary compound 33] | 0.91 | 1.20 | 1.23 |  |  |  | 
8 | Cc1ccc(-n2cnc(N)c2C(=O)c2ccc(F)cc2)cc1 [exemplary compound 34] | 1.38 | 1.33 | 1.49 |  |  |  | 
9 | Nc1ncn(-c2ccc(Cl)cc2Cl)c1C(=O)c1ccccc1 [exemplary compound 35] | 1.27 | 1.60 | 1.55 |  |  |  | 
10 | Cc1ccc(-n2cnc(N)c2C(=O)c2ccc(Br)cc2)cc1 [exemplary compound 36] | 1.12 | 1.57 | 1.59 |  |  |  | 
11 | Cc1ccc(-n2cnc(N)c2C(=O)C23CC4CC(CC(C4)C2)C3)cc1 [exemplary compound 37] | 1.39 | 1.47 | 1.77 |  |  |  | 
12 | Nc1ncn(-c2ccccn2)c1C(=O)c1ccccc1 [exemplary compound 38] |  |  |  | 1.08 | 1.12 | 1.15 | 
13 | N#Cc1ccc(-n2cnc(N)c2C(=O)c2ccccc2)cc1 [exemplary compound 39] |  |  |  | 1.04 | 1.10 | 1.09 | 
14 | CCOC(=O)c1c(N)ncn1-c1ccccc1C [exemplary compound 40] |  |  |  | 1.12 | 1.15 | 1.10 | 
15 | CC(=O)c1c(N)ncn1-c1ccccc1C [exemplary compound 41] |  |  |  | 1.14 | 1.06 | 1.11 | 
16 | Cc1ccccc1-n1cnc(N)c1C(=O)C12CC3CC(CC(C3)C1)C2 [exemplary compound 42] |  |  |  | 1.08 | 1.03 | 1.10 | 
17 | Cc1ccc(-n2cnc(N)c2C(=O)c2ccccc2)c(C)c1 [exemplary compound 43] |  |  |  | 1.07 | 1.11 | 1.12 | 
18 | Cc1cc(C)c(-n2cnc(N)c2C(=O)c2ccccc2)c(C)c1 [exemplary compound 44] |  |  |  | 1.11 | 1.08 | 1.07 | 
19 | myostatin [MSTN] |  |  |  |  |  |  | muscle formation of the C2C12 cells (C2C12 cells [2]; TAZ not knocked down, 1 μL myostatin stock (100 μg/mL) and/or 1 μL 10 mM IBS008738 stock in 1 mL medium): inhibited; expression of MHC (C2C12 cells [2]; immunoblotting): decreased; Fusion index (C2C12 cells [2]; siCont C2C12 cells): 0.06 and 0.05; Fusion index (C2C12 cells [2]; siTAZ C2C12 cells): 0.02 and 0.03 and 0.04
